From patent US8217043B2, “Compounds and methods for their use” (Fibrogen, Inc., priority 2008, dated 2012)

Target: T1, HIF-PH2 (EGLN1) (Homo sapiens, UniProt Q9GZT9)
T1 construct: made in house; host or cells: insect Hi5 cells
Assay: HIF-PH assay (14CO2 capture, peptide-dependent turnover)
Format: biochemical
Settings: for inhibition at 125 µM: Concentration 125 μM; for inhibition at 200 µM: Concentration 200 μM; for inhibition at 67 µM: Concentration 67 μM; for inhibition at 50 µM: Concentration 50 μM
Source text: Ketoglutaric acid α-[1-^14C]-sodium salt, alpha-ketoglutaric acid sodium salt, and HPLC purified peptide may be obtained from commercial sources, e.g., Perkin-Elmer (Wellesley Mass.), Sigma-Aldrich, and SynPep Corp. (Dublin Calif.), respectively. Peptides for use in the assay may be fragments of HIFα as described above or as disclosed in International Publication WO 2005/118836, incorporated by reference herein. HIF-PH, e.g., HIF-PH2 (EGLN1), can be expressed in, e.g., insect Hi5 cells, and partially purified, e.g., through a SP ion exchange chromatography column. Enzyme activity is determined by capturing ^14CO2 using an assay described by Kivirikko and Myllyla (1982, Methods Enzymol. 82:245-304). Assay reactions contain 50 mM HEPES (pH 7.4), 100 μM α-ketoglutaric acid sodium salt, 0.30 μCi/mL ketoglutaric acid α-[1-^14C]-sodium salt, 40 μM FeSO4, 1 mM ascorbate, 1541.8 units/mL Catalase, with or without 50 μM peptide substrate and various concentrations of compound of the invention. Reactions are initiated by addition of HIF-PH enzyme.
The peptide-dependent percent turnover is calculated by subtracting percent turnover in the absence of peptide from percent turnover in the presence of substrate peptide. Percent inhibition and IC50 are calculated using peptide-dependent percent turnover at given inhibitor concentrations. Calculation of IC50 values for each inhibitor is conducted using GraFit software (Erithacus Software Ltd., Surrey UK).
Representative compounds of the invention were analyzed using the HIF-PH assay described above. Table 1 presents enzyme inhibition data for exemplary compounds against HIF-PH2, a representative HIF prolyl hydroxylase. By inhibiting HIF prolyl hydroxylase, compounds of the invention stabilize HIFα, which then combines with HIFβ to form an active transcription factor that increases expression of various genes involved in numerous beneficial cellular processes.

T1 sequence (Q9GZT9 whole entry, species assumed): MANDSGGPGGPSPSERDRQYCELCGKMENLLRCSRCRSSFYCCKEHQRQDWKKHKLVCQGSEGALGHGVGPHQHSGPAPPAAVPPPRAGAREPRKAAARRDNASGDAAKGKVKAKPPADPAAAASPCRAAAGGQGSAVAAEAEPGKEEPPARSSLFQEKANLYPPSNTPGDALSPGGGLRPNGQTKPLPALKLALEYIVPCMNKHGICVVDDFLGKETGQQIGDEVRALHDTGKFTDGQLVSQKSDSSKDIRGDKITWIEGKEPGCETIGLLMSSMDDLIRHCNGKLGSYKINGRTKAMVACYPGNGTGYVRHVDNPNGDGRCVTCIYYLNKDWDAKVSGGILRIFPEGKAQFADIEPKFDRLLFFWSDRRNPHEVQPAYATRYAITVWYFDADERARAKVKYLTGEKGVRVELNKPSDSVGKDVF

For `O=C(O)CNC(=O)c1c(O)c2cccn2n(Cc2cccc(C(F)(F)F)c2)c1=O` [Example 13, {[1-(3-Trifluoromethyl-benzyl)-4-hydroxy-2-oxo-1,2-dihydro-pyrrolo[1,2-b]pyridazine-3-carbonyl]-amino}-acetic acid], which inhibition at 125 µM is on record?
The inhibition at 125 µM was 97%.

With `O=C(O)CNC(=O)c1c(O)c2cccn2n(Cc2ccccc2)c1=O` [Example 1, [(1-Benzyl-4-hydroxy-2-oxo-1,2-dihydro-pyrrolo[1,2-b]pyridazine-3-carbonyl)-amino]-acetic acid] as the compound, how does the inhibition at 200 µM read?
Its inhibition at 200 µM is 100%.

Which inhibition at 200 µM does the source give for `O=C(O)CNC(=O)c1c(O)c2cccn2n(Cc2cccc(Cl)c2)c1=O` [Example 8, {[1-(3-Chloro-benzyl)-4-hydroxy-2-oxo-1,2-dihydro-pyrrolo[1,2-b]pyridazine-3-carbonyl]-amino}-acetic acid] here?
The inhibition at 200 µM was 100%.

`O=C(O)CNC(=O)c1c(O)c2cc(-c3ccccc3)cn2n(Cc2ccc(C(F)(F)F)cc2)c1=O` [Example 37, {[4-Hydroxy-2-oxo-6-phenyl-1-(4-trifluoromethyl-benzyl)-1,2-dihydro-pyrrolo[1,2-b]pyridazine-3-carbonyl]-amino}-acetic acid] was tested. Which inhibition at 67 µM did it give?
The inhibition at 67 µM was 99%.

With `O=C(O)CNC(=O)c1c(O)c2cccn2[nH]c1=O` [Example 4, [(4-Hydroxy-2-oxo-1,2-dihydro-pyrrolo[1,2-b]pyridazine-3-carbonyl)-amino]-acetic acid] as the compound, how does the inhibition at 125 µM read?
The inhibition at 125 µM was 84%.

Which inhibition at 67 µM does the source give for `COc1ccc(Cn2c(=O)c(C(=O)N[C@@H](C)C(=O)O)c(O)c3cc(Cl)cn32)cc1` [Example 32, 2-(S)-{[6-Chloro-1-(4-methoxy-benzyl)-4-hydroxy-2-oxo-1,2-dihydro-pyrrolo[1,2-b]pyridazine-3-carbonyl]-amino}-propionic acid] here?
Its inhibition at 67 µM is 97%.

For `O=C(O)CNC(=O)c1c(O)c2cccn2n(Cc2ccc(C(F)(F)F)cc2)c1=O` [Example 10, {[1-(4-Trifluoromethyl-benzyl)-4-hydroxy-2-oxo-1,2-dihydro-pyrrolo[1,2-b]pyridazine-3-carbonyl]-amino}-acetic acid], which inhibition at 200 µM is on record?
Its inhibition at 200 µM is 100%.

For `O=C(O)CNC(=O)c1c(O)c2cc(Cl)cn2n(Cc2ccc(C(F)(F)F)cc2)c1=O` [Example 22, {[6-Chloro-4-hydroxy-2-oxo-1-(4-trifluoromethyl-benzyl)-1,2-dihydro-pyrrolo[1,2-b]pyridazine-3-carbonyl]-amino}-acetic acid], which inhibition at 50 µM is on record?
The inhibition at 50 µM was 98%.

How did the inhibition at 200 µM turn out when `O=C(O)CNC(=O)c1c(O)c2cccn2n(Cc2ccc(F)cc2)c1=O` [Example 3, {[1-(4-Fluoro-benzyl)-4-hydroxy-2-oxo-1,2-dihydro-pyrrolo[1,2-b]pyridazine-3-carbonyl]-amino}-acetic acid] was run?
Its inhibition at 200 µM is 100%.

How did the inhibition at 22 µM (Concentration 22 μM) turn out when `O=C(O)CNC(=O)c1c(O)c2c(Cl)c(Cl)c(Cl)n2n(Cc2ccccc2)c1=O` [Example 2, [(1-Benzyl-5,6,7-trichloro-4-hydroxy-2-oxo-1,2-dihydro-pyrrolo[1,2-b]pyridazine-3-carbonyl)-amino]-acetic acid] was run?
Its inhibition at 22 µM is 99%.

`O=C(O)CNC(=O)c1c(O)c2cccn2n(Cc2ccccc2Cl)c1=O` [Example 7, {[1-(2-Chloro-benzyl)-4-hydroxy-2-oxo-1,2-dihydro-pyrrolo[1,2-b]pyridazine-3-carbonyl]-amino}-acetic acid] was tested. Which inhibition at 200 µM did it give?
The inhibition at 200 µM was 100%.

`O=C(O)CNC(=O)c1c(O)c2cccn2n(Cc2cccc(F)c2)c1=O` [Example 14, {[1-(3-Fluoro-benzyl)-4-hydroxy-2-oxo-1,2-dihydro-pyrrolo[1,2-b]pyridazine-3-carbonyl]-amino}-acetic acid] was tested. Which inhibition at 125 µM did it give?
Its inhibition at 125 µM is 98%.

`CC[C@H](NC(=O)c1c(O)c2cccn2n(Cc2ccc(C(F)(F)F)cc2)c1=O)C(=O)O` [Example 25, 2-(S)-{[4-Hydroxy-2-oxo-1-(4-trifluoromethyl-benzyl)-1,2-dihydro-pyrrolo[1,2-b]pyridazine-3-carbonyl]-amino}-butyric acid] was tested. Which inhibition at 200 µM did it give?
The inhibition at 200 µM was 98%.

For `O=C(O)CNC(=O)c1c(O)c2cc3cc(F)ccc3n2n(Cc2ccc(F)cc2)c1=O` [Example 21, {[7-Fluoro-4-(4-fluoro-benzyl)-1-hydroxy-3-oxo-3,4-dihydro-4,4a-diaza-fluorene-2-carbonyl]-amino}-acetic acid], which inhibition at 50 µM is on record?
The inhibition at 50 µM was 99%.

Which inhibition at 50 µM does the source give for `O=C(O)CNC(=O)c1c(O)c2cc(Cl)c(Cl)n2n(Cc2ccc(F)cc2)c1=O` [Example 42, {[6,7-Dichloro-1-(4-fluoro-benzyl)-4-hydroxy-2-oxo-1,2-dihydro-pyrrolo[1,2-b]pyridazine-3-carbonyl]-amino}-acetic acid] here?
The inhibition at 50 µM was 95%.

With `O=C(O)CNC(=O)c1c(O)c2cc(Cl)cn2n(Cc2ccc(F)cc2)c1=O` [Example 26, {[6-Chloro-4-hydroxy-2-oxo-1-(4-fluoro-benzyl)-1,2-dihydro-pyrrolo[1,2-b]pyridazine-3-carbonyl]-amino}-acetic acid] as the compound, how does the inhibition at 67 µM read?
Its inhibition at 67 µM is 98%.

With `O=C(O)CNC(=O)c1c(O)c2cc(Cl)cn2n(Cc2ccccn2)c1=O` [Example 40, [(6-Chloro-4-hydroxy-2-oxo-1-pyridin-2-ylmethyl-1,2-dihydro-pyrrolo[1,2-b]pyridazine-3-carbonyl)-amino]-acetic acid] as the compound, how does the inhibition at 50 µM read?
The inhibition at 50 µM was 95%.

With `C[C@H](NC(=O)c1c(O)c2cc(Cl)cn2n(Cc2ccccn2)c1=O)C(=O)O` [Example 41, 2-(S)-[(6-Chloro-4-hydroxy-2-oxo-1-pyridin-2-ylmethyl-1,2-dihydro-pyrrolo[1,2-b]pyridazine-3-carbonyl)-amino]-propionic acid] as the compound, how does the inhibition at 50 µM read?
The inhibition at 50 µM was 91%.

`C[C@H](NC(=O)c1c(O)c2cccn2n(Cc2ccc(C(F)(F)F)cc2)c1=O)C(=O)O` [Example 24, 2-(S)-{[4-Hydroxy-2-oxo-1-(4-trifluoromethyl-benzyl)-1,2-dihydro-pyrrolo[1,2-b]pyridazine-3-carbonyl]-amino}-propionic acid] was tested. Which inhibition at 50 µM did it give?
The inhibition at 50 µM was 98%.

For `O=C(O)CNC(=O)c1c(O)c2cccn2n(Cc2ccccc2F)c1=O` [Example 5, {[1-(2-Fluoro-benzyl)-4-hydroxy-2-oxo-1,2-dihydro-pyrrolo[1,2-b]pyridazine-3-carbonyl]-amino}-acetic acid], which inhibition at 125 µM is on record?
The inhibition at 125 µM was 96%.

For `C[C@H](NC(=O)c1c(O)c2cc3ccccc3n2n(Cc2ccc(F)cc2)c1=O)C(=O)O` [Example 19, 2-(S)-{[4-(4-Fluoro-benzyl)-1-hydroxy-3-oxo-3,4-dihydro-4,4a-diaza-fluorene-2-carbonyl]-amino}-propionic acid], which inhibition at 50 µM is on record?
The inhibition at 50 µM was 99%.

With `O=C(O)CNC(=O)c1c(O)c2cccn2n(Cc2ccc(Cl)cc2)c1=O` [Example 11, {[1-(4-Chloro-benzyl)-4-hydroxy-2-oxo-1,2-dihydro-pyrrolo[1,2-b]pyridazine-3-carbonyl]-amino}-acetic acid] as the compound, how does the inhibition at 200 µM read?
Its inhibition at 200 µM is 100%.

With `C[C@H](NC(=O)c1c(O)c2cc(Cl)cn2n(Cc2ccc(Cl)cc2)c1=O)C(=O)O` [Example 29, 2-(S)-{[6-Chloro-1-(4-chloro-benzyl)-4-hydroxy-2-oxo-1,2-dihydro-pyrrolo[1,2-b]pyridazine-3-carbonyl]-amino}-propionic acid] as the compound, how does the inhibition at 67 µM read?
The inhibition at 67 µM was 100%.

With `C[C@H](NC(=O)c1c(O)c2cc3ccc(C(F)(F)F)cc3n2n(Cc2ccc(F)cc2)c1=O)C(=O)O` [Example 44, 2-(S)-{[4-(4-Fluoro-benzyl)-1-hydroxy-3-oxo-6-trifluoromethyl-3,4-dihydro-4,4a-diaza-fluorene-2-carbonyl]-amino}-propionic acid] as the compound, how does the inhibition at 67 µM read?
Its inhibition at 67 µM is 89%.

How did the inhibition at 200 µM turn out when `O=C(O)CNC(=O)c1c(O)c2cccn2n(Cc2ccc(F)cc2F)c1=O` [Example 6, {[1-(2,4-Difluoro-benzyl)-4-hydroxy-2-oxo-1,2-dihydro-pyrrolo[1,2-b]pyridazine-3-carbonyl]-amino}-acetic acid] was run?
Its inhibition at 200 µM is 100%.

With `CCCCn1c(=O)c(C(=O)NCC(=O)O)c(O)c2cccn21` [Example 17, [(1-Butyl-4-hydroxy-2-oxo-1,2-dihydro-pyrrolo[1,2-b]pyridazine-3-carbonyl)-amino]-acetic acid] as the compound, how does the inhibition at 50 µM read?
Its inhibition at 50 µM is 97%.

For `O=C(O)CNC(=O)c1c(O)c2cccn2n(Cc2c(F)cccc2F)c1=O` [Example 15, {[1-(2,6-Difluoro-benzyl)-4-hydroxy-2-oxo-1,2-dihydro-pyrrolo[1,2-b]pyridazine-3-carbonyl]-amino}-acetic acid], which inhibition at 125 µM is on record?
The inhibition at 125 µM was 94%.

`COc1ccc(Cn2c(=O)c(C(=O)NCC(=O)O)c(O)c3cc(Cl)cn32)cc1` [Example 31, {[6-Chloro-1-(4-methoxy-benzyl)-4-hydroxy-2-oxo-1,2-dihydro-pyrrolo[1,2-b]pyridazine-3-carbonyl]-amino}-acetic acid] was tested. Which inhibition at 67 µM did it give?
The inhibition at 67 µM was 100%.

How did the inhibition at 50 µM turn out when `O=C(O)CNC(=O)c1c(O)c2cc3ccc(C(F)(F)F)cc3n2n(Cc2ccc(F)cc2)c1=O` [Example 43, {[4-(4-Fluoro-benzyl)-1-hydroxy-3-oxo-6-trifluoromethyl-3,4-dihydro-4,4a-diaza-fluorene-2-carbonyl]-amino}-acetic acid] was run?
Its inhibition at 50 µM is 99%.
